In US9481676B2, “Azepino[4,5-B]indoles and methods of use” (Medivation Technologies, Inc., priority 2008, dated 2016):

Key:
[1] = molecular target: T1, human recombinant histamine H2 receptor (Homo sapiens, UniProt P25021); assay: Histamine H2 radioligand binding ([125I]Aminopotentidine); details: compound at 1 μM; read-out: Histamine Binding (1 μM) H2, percent inhibition of specific binding
T1 construct: expressed in transfected cells; host or cells: CHO-K1 cells
How it was run: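 Membranes from CHO-K1 cells expressing recombinant human H2 receptor, in 50 mM phosphate buffer pH 7.4, incubated with 0.1 nM [125I]aminopotentidine for 120 min at 25 °C; nonspecific binding defined with 3 μM tiotidine.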

[2] = molecular target: T2, human recombinant adrenergic α2A receptor (Homo sapiens, UniProt P08913); assay: Adrenergic alpha2A radioligand binding ([3H]MK-912); details: compound at 1 μM; read-out: Adrenergic (1 μM) α2A, percent inhibition of specific binding
T2 construct: expressed in transfected cells; host or cells: insect Sf9 cells
T2 sequence (P08913 1-465): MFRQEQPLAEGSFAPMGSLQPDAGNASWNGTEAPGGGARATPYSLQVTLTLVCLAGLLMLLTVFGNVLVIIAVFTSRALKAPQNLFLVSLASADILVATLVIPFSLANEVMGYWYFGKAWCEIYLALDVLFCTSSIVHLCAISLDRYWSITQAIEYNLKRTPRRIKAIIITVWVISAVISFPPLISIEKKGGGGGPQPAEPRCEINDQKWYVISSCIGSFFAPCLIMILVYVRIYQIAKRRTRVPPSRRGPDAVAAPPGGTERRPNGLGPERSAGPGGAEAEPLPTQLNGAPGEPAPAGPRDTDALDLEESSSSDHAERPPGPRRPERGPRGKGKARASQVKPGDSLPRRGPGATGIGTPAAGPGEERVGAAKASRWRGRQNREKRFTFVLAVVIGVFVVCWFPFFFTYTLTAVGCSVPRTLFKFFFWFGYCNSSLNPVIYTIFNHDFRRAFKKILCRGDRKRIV
Method: To evaluate in radioligand binding assays the activity of compounds of the invention, human recombinant adrenergic α2A receptor expressed in insect Sf9 cells (Uhlen S et al. J Pharmacol Exp Ther. 271:1558, 1994) in a modified Tris-HCl buffer (50 mM Tris-HCl, pH 7.4, 12.5 mM MgCl2, 2 mM EDTA) was used. Compounds of invention were incubated with 1 nM [^3H]MK-912 for 60 min. at 25° C. MK912 is (2S-trans)-1,3,4,5′,6,6′,7,12b-octahydro-1′,3′-dimethyl-spiro[2 h-benzofuro [2,3-a]quinolizine-2,4′ (1′H)-pyrimidin]-2′ (3′H)-one hydrochloride Non-specific binding was estimated in the presence of 10 μM WB-4101 (2-(2,6-Dimethoxyphenoxyethyl)aminomethyl-1,4-benzodioxane hydrochloride). Receptor proteins were filtered and washed, the filters were then counted to determine [^3H]MK-912 specifically bound. Compounds were screened at 1 μM or lower, using 1% DMSO as vehicle. Biochemical assay results are presented as the percent inhibition of specific binding in Table 5.

[3] = molecular target: T3, human recombinant dopamine D2L receptor (Homo sapiens, UniProt P14416); assay: Dopamine D2L radioligand binding ([3H]Spiperone); details: compound at 1 μM; read-out: Dopamine (1 μM) D2L, percent inhibition of specific binding
T3 construct: expressed in transfected cells; host or cells: CHO cells
T3 sequence (P14416 whole entry): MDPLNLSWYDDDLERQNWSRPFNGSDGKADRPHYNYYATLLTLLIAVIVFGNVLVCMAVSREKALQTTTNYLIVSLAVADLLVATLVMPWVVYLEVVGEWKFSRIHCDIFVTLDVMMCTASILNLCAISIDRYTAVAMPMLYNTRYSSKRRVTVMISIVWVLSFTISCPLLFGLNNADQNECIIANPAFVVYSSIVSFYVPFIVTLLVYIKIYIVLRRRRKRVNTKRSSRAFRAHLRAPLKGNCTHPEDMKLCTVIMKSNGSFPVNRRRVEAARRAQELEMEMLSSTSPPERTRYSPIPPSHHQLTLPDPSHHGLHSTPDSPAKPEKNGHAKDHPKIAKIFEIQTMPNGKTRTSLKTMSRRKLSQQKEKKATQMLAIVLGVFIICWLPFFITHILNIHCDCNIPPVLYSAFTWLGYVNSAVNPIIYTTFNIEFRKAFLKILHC
How it was run: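 Human recombinant D2L receptor from CHO cells, in Tris-HCl buffer pH 7.4 with ascorbic acid, BSA and 150 mM NaCl; compounds at 1 μM or lower (1% DMSO) incubated with 0.16 nM [3H]spiperone, 120 min, 25° C. Nonspecific binding by 10 μM haloperidol; filter counting; % inhibition of specific binding.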

[4] = molecular target: T4, human recombinant serotonin (5-Hydroxytryptamine) 5-HT2C receptor (Homo sapiens, UniProt P28335); assay: Serotonin 5-HT2C radioligand binding ([3H]Mesulergine); details: compound at 1 μM; read-out: Serotonin (1 μM) 5-HT2C, percent inhibition of specific binding
T4 construct: expressed in transfected cells; host or cells: CHO-K1 cells
T4 sequence (P28335 33-458): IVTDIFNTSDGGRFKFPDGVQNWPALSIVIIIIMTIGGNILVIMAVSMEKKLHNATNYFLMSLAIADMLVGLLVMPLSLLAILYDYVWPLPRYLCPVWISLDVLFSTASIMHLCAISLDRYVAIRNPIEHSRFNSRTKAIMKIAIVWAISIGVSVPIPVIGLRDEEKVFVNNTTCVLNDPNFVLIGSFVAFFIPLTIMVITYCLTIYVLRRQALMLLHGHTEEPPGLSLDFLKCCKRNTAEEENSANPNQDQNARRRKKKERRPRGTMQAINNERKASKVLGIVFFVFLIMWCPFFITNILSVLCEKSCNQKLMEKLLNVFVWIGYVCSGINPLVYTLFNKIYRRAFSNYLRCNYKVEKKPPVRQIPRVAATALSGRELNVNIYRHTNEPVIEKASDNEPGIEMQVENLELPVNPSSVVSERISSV
How it was run: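 Membranes from CHO-K1 cells expressing human 5-HT2C, incubated with 1 nM [3H]mesulergine for 60 min at 25 °C in 50 mM Tris-HCl pH 7.4 with ascorbic acid and pargyline.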

T1 sequence (P25021 whole entry): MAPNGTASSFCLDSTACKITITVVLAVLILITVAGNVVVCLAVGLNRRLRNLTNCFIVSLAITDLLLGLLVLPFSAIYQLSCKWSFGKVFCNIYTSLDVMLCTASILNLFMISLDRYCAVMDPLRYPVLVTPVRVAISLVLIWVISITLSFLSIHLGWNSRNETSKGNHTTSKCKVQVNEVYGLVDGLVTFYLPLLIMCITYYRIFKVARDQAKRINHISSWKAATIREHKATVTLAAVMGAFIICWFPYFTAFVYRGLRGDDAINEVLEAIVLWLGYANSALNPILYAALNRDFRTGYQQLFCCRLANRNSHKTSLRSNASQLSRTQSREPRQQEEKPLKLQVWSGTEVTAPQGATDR

SMILES: Cc1ccc2c(c1)c1c(n2/C=C/c2ccccc2F)CCN(C)CC1 [Compound No. 233, (E)-6-(2-fluorostyryl)-3,9-dimethyl-1,2,3,4,5,6-hexahydroazepino[4,5-b]indole]
- inhibition at 1 µM [1]: 94%
- inhibition at 1 µM [2]: 97%
- inhibition at 1 µM [3]: 73%
- inhibition at 1 µM [4]: 100%

SMILES: Cc1ccc2c(c1)c1c(n2CC(O)c2ccccc2F)CCN(C)CC1 (centres unmarked) [Compound No. 41, 1-(2-fluorophenyl)-2-(2,3,4,5-tetrahydro-3,9-dimethylazepino[4,5-b]indol-6(1H)-yl)ethanol]
- inhibition at 1 µM [1]: 52%
- inhibition at 1 µM [2]: 95%
- inhibition at 1 µM [3]: 34%
- inhibition at 1 µM [4]: 99%

SMILES: CC(C)NC(=O)Cn1c2c(c3cc(Cl)ccc31)CCN(C)CC2 [Compound No. 31, 2-(9-chloro-2,3,4,5-tetrahydro-3-methylazepino[4,5-b]indol-6(1H)-yl)-N-isopropylacetamide]
- inhibition at 1 µM [1]: -10%
- inhibition at 1 µM [2]: 31%
- inhibition at 1 µM [3]: 4%
- inhibition at 1 µM [4]: 56%

SMILES: Cc1ccc(CCn2c3c(c4cc(Cl)ccc42)CCN(C)CC3)cc1 [Compound No. 46, 9-chloro-3-methyl-6-(4-methylphenethyl)-1,2,3,4,5,6-hexahydroazepino[4,5-b]indole]
- inhibition at 1 µM [1]: 89%
- inhibition at 1 µM [2]: 100%
- inhibition at 1 µM [3]: 79%
- inhibition at 1 µM [4]: 98%

SMILES: Cc1ccc2c(c1)c1c(n2CC(O)c2ccc(Cl)cc2)CCN(C)CC1 (centres unmarked) [Compound No. 17, 1-(4-chlorophenyl)-2-(2,3,4,5-tetrahydro-3,9-dimethylazepino[4,5-b]indol-6(1H)-yl)ethanol]
- inhibition at 1 µM [1]: 84%
- inhibition at 1 µM [2]: 105%
- inhibition at 1 µM [3]: 34%
- inhibition at 1 µM [4]: 93%

SMILES: CN1CCc2c(n(CCc3ccc(C(=O)O)nc3)c3ccc(Cl)cc23)CC1 [Compound No. 21, 5-(2-(9-chloro-2,3,4,5-tetrahydro-3-methylazepino[4,5-b]indol-6(1H)-yl)ethyl)pyridine-2-carboxylic acid]
- inhibition at 1 µM [1]: 13%
- inhibition at 1 µM [2]: -7%
- inhibition at 1 µM [3]: 6%
- inhibition at 1 µM [4]: 29%

SMILES: Cc1ccc2c(c1)c1c(n2CC(O)c2ccccc2)CCN(C)CC1 (centres unmarked) [Compound No. 25, 2-(2,3,4,5-tetrahydro-3,9-dimethylazepino[4,5-b]indol-6(1H)-yl)-1-phenylethanol]
- inhibition at 1 µM [1]: 47%
- inhibition at 1 µM [2]: 100%
- inhibition at 1 µM [3]: 43%
- inhibition at 1 µM [4]: 94%

SMILES: C/C(=C\n1c2c(c3cc(Cl)ccc31)CCN(C)CC2)c1ccc(Cl)cc1Cl [Compound No. 239, (E)-9-chloro-6-(2-(2,4-dichlorophenyl)prop-1-enyl)-3-methyl-1,2,3,4,5,6-hexahydroazepino[4,5-b]indole]
- inhibition at 1 µM [1]: 89%
- inhibition at 1 µM [2]: 93%
- inhibition at 1 µM [3]: 9%
- inhibition at 1 µM [4]: 97%

SMILES: Cc1ccc2c(c1)c1c(n2CC(O)c2ccc(F)cc2)CCN(C)CC1 (centres unmarked) [Compound No. 52, 1-(4-fluorophenyl)-2-(2,3,4,5-tetrahydro-3,9-dimethylazepino[4,5-b]indol-6(1H)-yl)ethanol]
- inhibition at 1 µM [1]: 61%
- inhibition at 1 µM [2]: 97%
- inhibition at 1 µM [3]: 20%
- inhibition at 1 µM [4]: 96%

SMILES: CN1CCc2c(n(CC(O)c3ccccc3)c3ccc(Cl)cc23)CC1 (centres unmarked) [Compound No. 24, 2-(9-chloro-2,3,4,5-tetrahydro-3-methylazepino[4,5-b]indol-6(1H)-yl)-1-phenylethanol]
- inhibition at 1 µM [1]: 58%
- inhibition at 1 µM [2]: 100%
- inhibition at 1 µM [3]: 41%
- inhibition at 1 µM [4]: 95%

SMILES: Cc1ccc2c(c1)c1c(n2CC(C)(O)c2ccc(F)cc2)CCN(C)CC1 (centres unmarked) [Compound No. 14, 2-(4-fluorophenyl)-1-(2,3,4,5-tetrahydro-3,9-dimethylazepino[4,5-b]indol-6(1H)-yl)propan-2-ol]
- inhibition at 1 µM [1]: 83%
- inhibition at 1 µM [2]: 90%
- inhibition at 1 µM [3]: 38%
- inhibition at 1 µM [4]: 95%

SMILES: CN1CCc2c(n(/C=C/c3ccc(F)cc3)c3ccc(Cl)cc23)CC1 [Compound No. 234, (E)-9-chloro-6-(4-fluorostyryl)-3-methyl-1,2,3,4,5,6-hexahydroazepino[4,5-b]indole]
- inhibition at 1 µM [1]: 92%
- inhibition at 1 µM [2]: 98%
- inhibition at 1 µM [3]: 71%
- inhibition at 1 µM [4]: 98%

SMILES: CN1CCc2c(n(CCc3ccccc3F)c3ccc(Cl)cc23)CC1 [Compound No. 61, 6-(2-fluorophenethyl)-9-chloro-1,2,3,4,5,6-hexahydro-3-methylazepino[4,5-b]indole]
- inhibition at 1 µM [1]: 89%
- inhibition at 1 µM [2]: 23%
- inhibition at 1 µM [3]: 1%
- inhibition at 1 µM [4]: 89%

SMILES: C/C(=C\n1c2c(c3cc(C)ccc31)CCN(C)CC2)c1ccc(Cl)cc1Cl [Compound No. 238, (E)-6-(2-(2,4-dichlorophenyl)prop-1-enyl)-3,9-dimethyl-1,2,3,4,5,6-hexahydroazepino[4,5-b]indole]
- inhibition at 1 µM [1]: 98%
- inhibition at 1 µM [2]: 98%
- inhibition at 1 µM [3]: 7%
- inhibition at 1 µM [4]: 100%

SMILES: Cc1ccc2c(c1)c1c(n2CC(=O)N2CCCC2)CCN(C)CC1 [Compound No. 45, 2-(2,3,4,5-tetrahydro-3,9-dimethylazepino[4,5-b]indol-6(1H)-yl)-1-(pyrrolidin-1-yl)ethanone]
- inhibition at 1 µM [1]: 7%
- inhibition at 1 µM [2]: -9%
- inhibition at 1 µM [3]: -6%
- inhibition at 1 µM [4]: 16%

SMILES: Cc1ccc2c(c1)c1c(n2C(=O)Cc2ccc(F)cc2)CCN(C)CC1 [Compound No. 285, 1-(3,9-dimethyl-2,3,4,5-tetrahydroazepino[4,5-b]indol-6(1H)-yl)-2-(4-fluorophenyl) ethanone]
- inhibition at 1 µM [1]: 74%
- inhibition at 1 µM [2]: 91%
- inhibition at 1 µM [3]: 21%
- inhibition at 1 µM [4]: 99%

SMILES: Cc1ccc2c(c1)c1c(n2CCc2ccc(C(F)(F)F)nc2)CCN(C)CC1 [Compound No. 20, 6-(2-(6-(trifluoromethyl)pyridin-3-yl)ethyl)-1,2,3,4,5,6-hexahydro-3,9-dimethylazepino[4,5-b]indole]
- inhibition at 1 µM [1]: 37%
- inhibition at 1 µM [2]: 68%
- inhibition at 1 µM [3]: 13%
- inhibition at 1 µM [4]: 77%

SMILES: Cc1ccc2c(c1)c1c(n2CCc2ccc(Cl)cc2)CCN(C)CC1 [Compound No. 28, 6-(4-chlorophenethyl)-1,2,3,4,5,6-hexahydro-3,9-dimethylazepino[4,5-b]indole]
- inhibition at 1 µM [1]: 97%
- inhibition at 1 µM [2]: 96%
- inhibition at 1 µM [3]: 67%
- inhibition at 1 µM [4]: 94%

SMILES: COc1ccc(C(O)Cn2c3c(c4cc(C)ccc42)CCN(C)CC3)cc1 (centres unmarked) [Compound No. 48, 2-(2,3,4,5-tetrahydro-3,9-dimethylazepino[4,5-b]indol-6(1H)-yl)-1-(4-methoxyphenyl) ethanol]
- inhibition at 1 µM [1]: 56%
- inhibition at 1 µM [2]: 98%
- inhibition at 1 µM [3]: 31%
- inhibition at 1 µM [4]: 98%

SMILES: CN1CCc2c(n(CC(=O)N3CCOCC3)c3ccc(Cl)cc23)CC1 [Compound No. 60, 2-(9-chloro-2,3,4,5-tetrahydro-3-methylazepino[4,5-b]indol-6(1H)-yl)-1-morpholinoethanone]
- inhibition at 1 µM [1]: 6%
- inhibition at 1 µM [2]: 7%
- inhibition at 1 µM [3]: -9%
- inhibition at 1 µM [4]: -5%
